Literature values as cited in patent publication US20180015164A1, “A Composition Containing Protective Agent for Singlet Oxygen and A Preparation Method therefor” (Nanjing University, priority 2016, published 2018).

Details: in the named solution (solvent / protective agent)

Structure (SMILES) | lifetime of singlet oxygen
FC(Cl)(Cl)Cl [Freon 11] | 1000±200 μs
S=C=S [carbon disulfide] | 200±60 μs
ClC(Cl)Cl [chloroform] | 60±15 μs
[2H]O[2H] [deuteroxide] | 20 μs
CCO [ethyl alcohol] | 12 μs
CCCCCC [hexane] | 17 μs
CO [methyl alcohol] | 7 μs
FC(F)(F)C(F)(F)C(F)(F)C(F)(F)C(F)(F)C(F)(F)F [perfluorohexane] | 600±200 μs
O [water] | 2 μs
